Measurements: patent US11130769B2 (Prelude Therapeutics Incorporated, priority 2018, dated 2021)
pIC50, pKi: −log10 of the molar value. Like-named read-outs stand apart in the source and are kept apart here.

What was measured:
MCL-1 = MCL-1 (Homo sapiens (Human), UniProt Q07820); test: Cell free Mcl-1:Bim affinity assay (fluorescence polarization competition); assay type: binding; conditions: 15 nM MCL-1, 5 nM FITC-Bim, 1 hour at room temperature, read-out: BIM_Ki
Summary of the method: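 Compounds competed with FITC-labelled Bim peptide (5 nM) for MCL-1 (15 nM) in HEPES/NaCl buffer with 1% DMSO, 1 h at room temperature. Fluorescence polarization (535 nm emission) gave % inhibition versus DMSO and positive controls; IC50 from 10-point curves, converted to Ki by the Nikolovska-Coleska equation.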

H929 cells = test: Cell viability assay (H929 10 FBS); assay type: cell-based; conditions: read-out: H929_10FBS IC50
Summary of the method: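 H929 cells, 4000/well, in RPMI 1640 with 10% FBS, sodium pyruvate, HEPES and glucose were exposed to compound 24 h at 37 °C. Viability read as luminescence after 30-60 min at RT with CellTiter-Glo or ATPlite 1 Step.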

[1] = Homo sapiens, NCI-H929, 24 hours

MCL-1, sequence (Q07820 whole entry): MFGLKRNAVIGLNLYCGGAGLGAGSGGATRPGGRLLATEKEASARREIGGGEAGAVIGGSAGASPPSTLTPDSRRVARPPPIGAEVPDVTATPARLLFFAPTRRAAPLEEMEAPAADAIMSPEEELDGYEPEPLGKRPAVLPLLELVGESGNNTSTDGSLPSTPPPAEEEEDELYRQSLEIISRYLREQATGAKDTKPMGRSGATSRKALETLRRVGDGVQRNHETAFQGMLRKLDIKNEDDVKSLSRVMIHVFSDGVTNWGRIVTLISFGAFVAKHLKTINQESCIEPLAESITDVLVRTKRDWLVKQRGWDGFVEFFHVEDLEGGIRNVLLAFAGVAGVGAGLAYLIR

SMILES	pKi (MCL-1; class symbols)	pIC50 (H929 cells; [1])	pKi (MCL-1; numeric values)	pIC50 (H929 cells; 24 hours)
CC1(C)OC/C=C/[C@H](OCCN2CCCCC2)[C@@H]2CC[C@H]2CN2C[C@@]3(CCCc4cc(Cl)ccc43)COc3ccc(cc32)S(=O)(=O)NC1=O [Example 263, (3R,6R,7S,8E,22S)-6′-Chloro-12,12-dimethyl-15,15-dioxo-7-[2-(1-piperidyl)ethoxy]spiro[11,20-dioxa-15-thia-1,14-diazatetracyclo[14.7.2.03,6.019,24]pentacosa-8,16,18,24-tetraene-22,1′-tetralin]-13-one]	> 9.00	> 6.30		
CC1(C)OC/C=C/[C@H](OC(=O)N2CCN(CCO)CC2)[C@@H]2CC[C@H]2CN2C[C@@]3(CCCc4cc(Cl)ccc43)COc3ccc(cc32)S(=O)(=O)NC1=O [Example 148, [(3R,6R,7S,8E,22S)-6′-Chloro-12,12-dimethyl-13,15,15-trioxo-spiro[11,20-dioxa-15-thia-1,14-diazatetracyclo[14.7.2.03,6.019,24]pentacosa-8,16,18,24-tetraene-22,1′-tetralin]-7-yl] 4-(2-hydroxyethyl)piperazine-1-carboxylate]	> 9.00	> 6.30		
CO[C@@H]1/C=C\CCC2(CC2)C(=O)NS(=O)(=O)c2ccc3c(c2)N(C[C@@H]2CC[C@H]21)C[C@@]1(CCCc2cc(Cl)ccc21)CO3 [Example 70, (3R,6R,7R,8Z,22S)-6′-chloro-7-methoxy-12,12-ethylene-15,15-dioxo-spiro[20-oxa-15-thia-1,14-diazatetracyclo[14.7.2.03,6.019,24]pentacosa[8,16(25),17,19(24)]tetraene-22,1′-tetralin]-13-one]	7.00 to 9.00			< 6.00
O=C(Cc1ccccc1)NS(=O)(=O)c1ccc2c(c1)N(CC1CCC1)CC1(CCCc3cc(Cl)ccc31)CO2 (stereo not drawn) [Example 5, N-[6′-Chloro-5-(cyclobutylmethyl)spiro[2,4-dihydro-1,5-benzoxazepine-3,1′-tetralin]-7-yl]sulfonyl-2-phenyl-acetamide]		< 6.00	7.43	
C[C@H]1CN(C(=O)O[C@H]2/C=C/COC(C)(C)C(=O)NS(=O)(=O)c3ccc4c(c3)N(C[C@@H]3CC[C@H]32)C[C@@]2(CCCc3cc(Cl)ccc32)CO4)CCN1 [Example 176, [(3R,6R,7S,8E,22S)-6′-Chloro-12,12-dimethyl-13,15,15-trioxo-spiro[11,20-dioxa-15-thia-1,14-diazatetracyclo[14.7.2.03,6.019,24]pentacosa-8,16,18,24-tetraene-22,1′-tetralin]-7-yl] (3S)-3-methylpiperazine-1-carboxylate]	> 9.00	> 6.30		
CC(=O)NS(=O)(=O)c1ccc2c(c1)N(CC1CC1)CC1(CCCc3cc(Cl)ccc31)CO2 (stereo not drawn) [Example 2, N-[6′-Chloro-5-(cyclopropylmethyl)spiro[2,4-dihydro-1,5-benzoxazepine-3,1′-tetralin]-7-yl]sulfonylacetamide]		< 6.00	6.75	
COCCOC[C@@H]1CC/C=C/[C@@H](OC)[C@@H]2CC[C@H]2CN2C[C@@]3(CCCc4cc(Cl)ccc43)COc3ccc(cc32)S(=O)(=O)NC1=O [Example 97, (3R,6R,7R,8E,12S,22S)-6′-Chloro-12-((2-methoxyethoxy)methyl)-7-methoxy-15,15-dioxo-spiro[20-oxa-15-thia-1,14-diazatetracyclo[14.7.2.03,6.019,24]pentacosa-8,16,18,24-tetraene-22,1′-tetralin]-13-one]	> 9.00	< 6.00		
CN[C@@H]1CCN(C(=O)O[C@H]2/C=C/COC(C)(C)C(=O)NS(=O)(=O)c3ccc4c(c3)N(C[C@@H]3CC[C@H]32)C[C@@]2(CCCc3cc(Cl)ccc32)CO4)C1 [Example 164, [(3R,6R,7S,8E,22S)-6′-Chloro-12,12-dimethyl-13,15,15-trioxo-spiro[11,20-dioxa-15-thia-1,14-diazatetracyclo[14.7.2.03,6.019,24]pentacosa-8,16,18,24-tetraene-22,1′-tetralin]-7-yl] (3R)-3-(methylamino)pyrrolidine-1-carboxylate]	> 9.00	> 6.30		
CC1(C)CN(C(=O)O[C@H]2/C=C/COC(C)(C)C(=O)NS(=O)(=O)c3ccc4c(c3)N(C[C@@H]3CC[C@H]32)C[C@@]2(CCCc3cc(Cl)ccc32)CO4)CCO1 [Example 158, [(3R,6R,7S,8E,22S)-6′-Chloro-12,12-dimethyl-13,15,15-trioxo-spiro[11,20-dioxa-15-thia-1,14-diazatetracyclo[14.7.2.03,6.019,24]pentacosa-8,16,18,24-tetraene-22,1′-tetralin]-7-yl] 2,2-dimethylmorpholine-4-carboxylate]	> 9.00	> 6.30		

Further lines, with some results ahead:

pKi (MCL-1; class symbols)	pIC50 (H929 cells; [1])	pKi (MCL-1; numeric values)	SMILES	pIC50 (H929 cells; 24 hours)
> 9.00	> 6.30		COC1CCN(C(=O)O[C@H]2/C=C/COC(C)(C)C(=O)NS(=O)(=O)c3ccc4c(c3)N(C[C@@H]3CC[C@H]32)C[C@@]2(CCCc3cc(Cl)ccc32)CO4)CC1 [Example 51, [(3R,6R,7S,8E,22S)-6′-Chloro-12,12-dimethyl-13,15,15-trioxo-spiro[11,20-dioxa-15-thia-1,14-diazatetracyclo[14.7.2.03,6.019,24]pentacosa-8,16,18,24-tetraene-22,1′-tetralin]-7-yl] 4-methoxypiperidine-1-carboxylate]	
7.00 to 9.00	> 6.30		CCN1C/C=C/[C@H](O)[C@@H]2CC[C@H]2CN2C[C@@]3(CCCc4cc(Cl)ccc43)COc3ccc(cc32)S(=O)(=O)NC(=O)C1(C)C [Example 219, (3R,6R,7S,8E,22S)-6′-Chloro-7-hydroxy-11-ethyl-12,12-dimethyl-15,15-dioxo-spiro[20-oxa-15-thia-1,11,14-triazatetracyclo[14.7.2.03,6.019,24]pentacosa-8,16,18,24-tetraene-22,1′-tetralin]-13-one]	
7.00 to 9.00	< 6.00		CO[C@H]1/C=C/CNC(C)(C)C(=O)NS(=O)(=O)c2ccc3c(c2)N(C[C@@H]2CC[C@H]21)C[C@@]1(CCCc2cc(Cl)ccc21)CO3 [Example 136, (3R,6R,7S,8E,22S)-6′-Chloro-7-methoxy-12,12-dimethyl-15,15-dioxo-spiro[20-oxa-15-thia-1,11,14-triazatetracyclo[14.7.2.03,6.019,24]pentacosa-8,16,18,24-tetraene-22,1′-tetralin]-13-one]	
7.00 to 9.00	< 6.00		CO[C@@H]1/C=C/CCC2(CCC2)C(=O)NS(=O)(=O)c2ccc3c(c2)N(C[C@@H]2CC[C@H]21)C[C@@]1(CCCc2cc(Cl)ccc21)CO3 [Example 86, (3R,6R,7R,8E,22S)-6′-Chloro-7-methoxy-12,12-(1,3-propylene)-15,15-dioxo-spiro[[20]oxa-15-thia-1,14-diazatetracyclo[14.7.2.03,6.019,24]pentacosa[8,16(25),17,19(24)]tetraene-22,1′-tetralin]-13-one]	
> 9.00	> 6.30		CC1/C=C/[C@H](OC(=O)N(C)C)[C@@H]2CC[C@H]2CN2C[C@@]3(CCCc4cc(Cl)ccc43)COc3ccc(cc32)S(=O)(=O)NC(=O)C(C)(C)O1 (stereo partly drawn) [Example 292, [(3R,6R,7S,8E,22S)-6′-Chloro-10,12,12-trimethyl-13,15,15-trioxo-spiro[11,20-dioxa-15-thia-1,14-diazatetracyclo[14.7.2.03,6.019,24]pentacosa-8,16,18,24-tetraene-22,1′-tetralin]-7-yl] N,N-dimethylcarbamate]	
7.00 to 9.00	> 6.30		CN(C)C(=O)O[C@@H]1/C=C/CN(C)C(C)(C)C(=O)NS(=O)(=O)c2ccc3c(c2)N(C[C@@H]2CC[C@H]21)C[C@@]1(CCCc2cc(Cl)ccc21)CO3 [Example 200, [(3R,6R,7R,8E,22S)-6′-Chloro-11,12,12-trimethyl-13,15,15-trioxo-spiro[20-oxa-15-thia-1,11,14-triazatetracyclo[14.7.2.03,6.019,24]pentacosa-8,16,18,24-tetraene-22,1′-tetralin]-7-yl] N,N-dimethylcarbamate]	
> 9.00	> 6.30		CC1(C)OC/C=C/[C@H](OC(=O)N2CCCC2)[C@@H]2CC[C@H]2CN2C[C@@]3(CCCc4cc(Cl)ccc43)COc3ccc(cc32)S(=O)(=O)NC1=O [Example 173, [(3R,6R,7S,8E,22S)-6′-Chloro-12,12-dimethyl-13,15,15-trioxo-spiro[11,20-dioxa-15-thia-1,14-diazatetracyclo[14.7.2.03,6.019,24]pentacosa-8,16,18,24-tetraene-22,1′-tetralin]-7-yl]pyrrolidine-1-carboxylate]	
> 9.00	> 6.30		CCN(CC)CCO[C@H]1/C=C/COC(C)(C)C(=O)NS(=O)(=O)c2ccc3c(c2)N(C[C@@H]2CC[C@H]21)C[C@@]1(CCCc2cc(Cl)ccc21)CO3 [Example 268, (3R,6R,7S,8E,22S)-6′-Chloro-7-[2-(diethylamino)ethoxy]-12,12-dimethyl-15,15-dioxo-spiro[11,20-dioxa-15-thia-1,14-diazatetracyclo[14.7.2.03,6.019,24]pentacosa-8,16,18,24-tetraene-22,1′-tetralin]-13-one]	
7.00 to 9.00	> 6.00		CO[C@@H]1/C=C/CCN(C)C(=O)NS(=O)(=O)c2ccc3c(c2)N(C[C@@H]2CC[C@H]21)C[C@@]1(CCCc2cc(Cl)ccc21)CO3 [Example 107, (3R,6R,7R,8E,22S)-6′-Chloro-7-methoxy-12-methyl-15,15-dioxo-spiro[20-oxa-15-thia-1,12,14-triazatetracyclo[14.7.2.03,6.019,24]pentacosa-8,16,18,24-tetraene-22,1′-tetralin]-13-one]	
